For 31 molecules, IC50 results are on record in US9416111B2, “Substituted diazine and triazine spleen tyrosine kinease (Syk) inhibitors” (Merck Sharp & Dohme Corp., priority 2012, dated 2016).

pIC50: −log10 of the molar value.

In this assay the target is T1, recombinant human GST-SYK (Homo sapiens, UniProt P43405).
T1 construct: purchased Carna Biosciences 08-176
In words: Homogeneous Time-Resolved Fluorescence (HTRF) assay for the recombinant human Syk enzyme. To be noted: GST-hSYK 5 pM, ATP 25 μM, IC50 rated in classes, read-out: rhSYK Activity. It is filed as biochemical. As for the experimental part:
Homogeneous Time-Resolved Fluorescence (HTRF) Assay for the Recombinant Human Syk Enzyme
A recombinant GST-hSYK fusion protein was used to measure potency of compounds to inhibit human Syk activity. The recombinant human GST-SYK (Carna Biosciences #08-176) (5 pM final concentration) was incubated with various concentrations of the inhibitor diluted in DMSO (0.1% final concentration) for 10 minutes at room temperature in 15 mM Tris-HCl (pH 7.5), 0.01% tween 20, 2 mM DTT in 384 well plate format. To initiate the reaction the biotinylated substrate peptide (250 nM final concentration) that contains the phosphorylation site for Syk was added with magnesium (5 mM final concentration) and ATP (25 μM final concentration). Final volume of the reaction was 10 μL. Phosphorylation of the peptide was allowed to proceed for 45′ at room temperature. To quench the reaction and detect the phosphorylated product, 2 nM of a Europium-anti-phosphotyrosine antibody (Perkin Elmer #AD0161) and 70 nM SA-APC (Perkin-Elmer #CR130-100) were added together in 15 mM Tris pH 7.5, 40 mM EDTA, 0.01% tween 20. Final volume of the quenching solution was 10 μL. The resulting HTRF signal was measured after 30 minutes on an EnVision (Perkin-Elmer) reader using a time-resolved fluorescence protocol.
On the technique in general: TR-FRET usually uses a lanthanide donor and a delayed reading to cut background.
Regarding `Cc1cc(Nc2nccc(C(F)(F)F)n2)cc(-c2cnc(N(C)CC(O)CO)nc2)c1` (stereo not shown) [Example 2.43, 3-{methyl[5-(3-methyl-5-{[4-(trifluoromethyl)pyrimidin-2-yl]amino}phenyl)pyrimidin-2-yl]amino}propane-1,2-diol], the pIC50 is above 7.00.
For `CNC(=O)CNc1ncc(-c2cc(C)cc(Nc3nccc(C(F)(F)F)n3)c2)cn1` [Example 2.44, N-methyl-N~2~-[5-(3-methyl-5-{[4-(trifluoromethyl)pyrimidin-2-yl]amino}phenyl)pyrimidin-2-yl]glycinamide], the pIC50 is above 7.00.
In the case of `Cc1cc(Nc2nccc(C(F)(F)F)n2)cc(-c2cnc(N(C)CCC3OCCO3)nc2)c1` [Example 2.45, N-[2-(1,3-dioxolan-2-yl)ethyl]-N-methyl-5-(3-methyl-5-{[4-(trifluoromethyl)pyrimidin-2-yl]amino}phenyl)pyrimidin-2-amine], the pIC50 was above 7.00.
For `Cc1cc(Nc2nccc(C(F)(F)F)n2)cc(-c2cnc(N3CCNC(=O)C3)nc2)c1` [Example 2.46, 4-[5-(3-methyl-5-{[4-(trifluoromethyl)pyrimidin-2-yl]amino}phenyl)pyrimidin-2-yl]piperazin-2-one], the pIC50 is above 7.00.
On to `Cc1cc(Nc2nccc(C(F)(F)F)n2)cc(-c2cnc(NCC(C)(C)O)nc2)c1` [Example 2.47, 2-methyl-1-{[5-(3-methyl-5-{[4-(trifluoromethyl)pyrimidin-2-yl]amino}phenyl)pyrimidin-2-yl]amino}propan-2-ol], for which the pIC50 is above 7.00.
On to `Cc1cc(Nc2nccc(C(F)(F)F)n2)cc(-c2cnc(NCCS(C)(=O)=O)nc2)c1` [Example 2.48, N-[3-methyl-5-(2-{[2-(methylsulfonyl)ethyl]amino}pyrimidin-5-yl)phenyl]-4-(trifluoromethyl)pyrimidin-2-amine], for which the pIC50 was above 7.00.
As to `COCC1CCCCN1c1ncc(-c2cc(C)cc(Nc3nccc(C(F)(F)F)n3)c2)cn1` (stereo not shown) [Example 2.49, N-(3-{2-[2-(methoxymethyl)piperidin-1-yl]pyrimidin-5-yl}-5-methylphenyl)-4-(trifluoromethyl)pyrimidin-2-amine], the pIC50 is 6.00 to 7.00.
As for `Cc1cc(Nc2nccc(C(F)(F)F)n2)cc(-c2cnc(N3CC(O)C3)nc2)c1` [Example 2.50, 1-[5-(3-methyl-5-{[4-(trifluoromethyl)pyrimidin-2-yl]amino}phenyl)pyrimidin-2-yl]azetidin-3-ol], the pIC50 is above 7.00.
The same measure for `CCC1C(=O)NCCN1c1ncc(-c2cc(C)cc(Nc3nccc(C(F)(F)F)n3)c2)cn1` (stereo not shown) [Example 2.51, 3-ethyl-4-[5-(3-methyl-5-{[4-(trifluoromethyl)pyrimidin-2-yl]amino}phenyl)pyrimidin-2-yl]piperazin-2-one]: above 7.00; for `Cc1cc(Nc2nccc(C(F)(F)F)n2)cc(-c2cnc(NCc3cncn3C)nc2)c1` [Example 2.52, N-[3-methyl-5-(2-{[(1-methyl-1H-imidazol-5-yl)methyl]amino}pyrimidin-5-yl)phenyl]-4-(trifluoromethyl)pyrimidin-2-amine]: above 7.00; for `CCCOC1CCCN(c2ncc(-c3cc(C)cc(Nc4nccc(C(F)(F)F)n4)c3)cn2)C1` (stereo not shown) [Example 2.53, N-{3-methyl-5-[2-(3-propoxypiperidin-1-yl)pyrimidin-5-yl]phenyl}-4-(trifluoromethyl)pyrimidin-2-amine]: 6.00 to 7.00.
On to `Cc1cc(Nc2nccc(C(F)(F)F)n2)cc(-c2cnc(N3CCC3C(=O)O)nc2)c1` (stereo not shown) [Example 2.54, 1-[5-(3-methyl-5-{[4-(trifluoromethyl)pyrimidin-2-yl]amino}phenyl)pyrimidin-2-yl]azetidine-2-carboxylic acid], for which the pIC50 was above 7.00.
Under `CCN1CCN(c2ncc(-c3cc(C)cc(Nc4nccc(C(F)(F)F)n4)c3)cn2)CC1` [Example 2.55, N-{3-[2-(4-ethylpiperazin-1-yl)pyrimidin-5-yl]-5-methylphenyl}-4-{trifluoromethyl)pyrimidin-2-amine] stands above 7.00.
Regarding `Cc1cc(Nc2nccc(C(F)(F)F)n2)cc(-c2cnc(N3CCCC[C@H]3C(=O)O)nc2)c1` [Example 2.56, (2S)-1-[5-(3-methyl-5-{[4-(trifluoromethyl)pyrimidin-2-yl]amino}phenyl)pyrimidin-2-yl]piperidine-2-carboxylic acid], the pIC50 was above 7.00.
In the case of `Cc1cc(Nc2nccc(C(F)(F)F)n2)cc(-c2cnc(NC(C)(C)CO)nc2)c1` [Example 2.57, 2-methyl-2-{[5-(3-methyl-5-{[4-(trifluoromethyl)pyrimidin-2-yl]amino}phenyl)pyrimidin-2-yl]amino}propan-1-ol], the pIC50 is above 7.00.
As to `Cc1cc(Nc2nccc(C(F)(F)F)n2)cc(-c2cnc(NC(C)CO)nc2)c1` (stereo not shown) [Example 2.58, 2-{[5-(3-methyl-5-{[4-(trifluoromethyl)pyrimidin-2-yl]amino}phenyl)pyrimidin-2-yl]amino}propan-1-ol], the pIC50 was above 7.00.
For the molecule `CCC(CO)Nc1ncc(-c2cc(C)cc(Nc3nccc(C(F)(F)F)n3)c2)cn1` (stereo not shown) [Example 2.59, 2-{[5-(3-methyl-5-{[4-(trifluoromethyl)pyrimidin-2-yl]amino}phenyl)pyrimidin-2-yl]amino}butan-1-ol], the pIC50 was above 7.00.
On to `Cc1cc(Nc2nccc(C(F)(F)F)n2)cc(-c2cnc(NCC(C)O)nc2)c1` (stereo not shown) [Example 2.60, 1-{[5-(3-methyl-5-{[4-(trifluoromethyl)pyrimidin-2-yl]amino}phenyl)pyrimidin-2-yl]amino}propan-2-ol], for which the pIC50 was above 7.00.
With `Cc1cc(Nc2nccc(C(F)(F)F)n2)cc(-c2cnc(NCC(O)CC(=O)O)nc2)c1` (stereo not shown) [Example 2.61], the pIC50 was above 7.00.
With `Cc1cc(Nc2nccc(C(F)(F)F)n2)cc(-c2cnc(NCCO)nc2)c1` [Example 2.62, 2-{[5-(3-methyl-5-{[4-(trifluoromethyl)pyrimidin-2-yl]amino}phenyl)pyrimidin-2-yl]amino}ethanol], the pIC50 is above 7.00.
For `Cc1cc(Nc2nccc(C(F)(F)F)n2)cc(-c2cnc(NCc3cn(C)cn3)nc2)c1` [Example 2.63, N-[3-methyl-5-(2-{[(1-methyl-1H-imidazol-4-yl)methyl]amino}pyrimidin-5-yl)phenyl]-4-(trifluoromethyl)pyrimidin-2-amine], the pIC50 was above 7.00.
`Cc1cc(Nc2nccc(C(F)(F)F)n2)cc(-c2cnc(NCC(=O)N(C)C)nc2)c1` [Example 2.64, N,N-dimethyl-N~2~-[5-(3-methyl-5-{[4-(trifluoromethyl)pyrimidin-2-yl]amino}phenyl)pyrimidin-2-yl]glycinamide]: the pIC50 is above 7.00.
Regarding `Cc1cc(Nc2nccc(C(F)(F)F)n2)cc(-c2cnc(N3CCN(CC(F)(F)F)CC3)nc2)c1` [Example 2.65, N-(3-methyl-5-{2-[4-(2,2,2-trifluoroethyl)piperazin-1-yl]pyrimidin-5-yl}phenyl)-4-(trifluoromethyl)pyrimidin-2-amine], the pIC50 is 6.00 to 7.00.
With `COCC1CCN(c2ncc(-c3cc(C)cc(Nc4nccc(C(F)(F)F)n4)c3)cn2)C1` (stereo not shown) [Example 2.66, N-(3-{2-[3-(methoxymethyl)pyrrolidin-1-yl]pyrimidin-5-yl}-5-methylphenyl)-4-(trifluoromethyl)pyrimidin-2-amine], the pIC50 was 6.00 to 7.00.
For `Cc1cc(Nc2nccc(C(F)(F)F)n2)cc(-c2cnc(N3CCN(C)C(=O)C3C)nc2)c1` (stereo not shown) [Example 2.67, 1,3-dimethyl-4-[5-(3-methyl-5-{[4-(trifluoromethyl)pyrimidin-2-yl]amino}phenyl)pyrimidin-2-yl]piperazin-2-one], the pIC50 is above 7.00.
On to `CCCN1CCCN(c2ncc(-c3cc(C)cc(Nc4nccc(C(F)(F)F)n4)c3)cn2)CC1` [Example 2.68, N-{3-methyl-5-[2-(4-propyl-1,4-diazepan-1-yl)pyrimidin-5-yl]phenyl}-4-(trifluoromethyl)pyrimidin-2-amine], for which the pIC50 was above 7.00.
With `CNC(=O)CCNc1ncc(-c2cc(C)cc(Nc3nccc(C(F)(F)F)n3)c2)cn1` [Example 2.69, N-methyl-N~3~-[5-(3-methyl-5-{[4-(trifluoromethyl)pyrimidin-2-yl]amino}phenyl)pyrimidin-2-yl]-beta-alaninamide], the pIC50 is above 7.00.
For the molecule `CC(=O)NCCCNc1ncc(-c2cc(C)cc(Nc3nccc(C(F)(F)F)n3)c2)cn1` [Example 2.71, N-(3-{[5-(3-methyl-5-{[4-(trifluoromethyl)pyrimidin-2-yl]amino}phenyl)pyrimidin-2-yl]amino}propyl)acetamide], the pIC50 was above 7.00.
For the molecule `Cc1cc(Nc2nccc(C(F)(F)F)n2)cc(-c2cnc(N[C@@H]3CCC(=O)NC3)nc2)c1` [Example 2.72, (5R)-5-{[5-(3-methyl-5-{[4-(trifluoromethyl)pyrimidin-2-yl]amino}phenyl)pyrimidin-2-yl]amino}piperidin-2-one], the pIC50 is above 7.00.
Under `Cc1cc(Nc2nccc(C(F)(F)F)n2)cc(-c2cnc(N[C@H]3CCC(=O)NC3)nc2)c1` [Example 2.73, (5S)-5-{[5-(3-methyl-5-{[4-(trifluoromethyl)pyrimidin-2-yl]amino}phenyl)pyrimidin-2-yl]amino}piperidin-2-one] stands above 7.00; under `Cc1cc(Nc2nccc(C(F)(F)F)n2)cc(-c2cnc(N3CCCC(O)C3)nc2)c1` (stereo not shown) [Example 2.75, 1-[5-(3-methyl-5-{[4-(trifluoromethyl)pyrimidin-2-yl]amino}phenyl)pyrimidin-2-yl]piperidin-3-ol], above 7.00.
